Tests used:
[1] = solubility in solvents (observation); assay type: physicochemical; settings: solvents as named in the value
[2] = storage stability (observation); assay type: physicochemical

| Compound | solubility [1] | storage stability ([2]; stored at 4 °C) | storage stability ([2]; room temperature) |
| --- | --- | --- | --- |
| NC(=O)CN1CCN(CC(N)=O)CCN(CC(=O)NCc2ccccc2)CC1 [Chelator 2, 2,2′-(7-(2-(Benzylamino)-2-oxoethyl)-1,4,7-triazonane-1,4-diyl)diacetamide] | soluble in water, methanol, acetonitrile, and dimethyl sulfoxide | stable when stored at 4 °C for several weeks |  |
| O=C(CN1CCN(CCO)CCN(CCO)CC1)NCc1ccccc1 [Chelator 3, N-Benzyl-2-(4,7-bis(2-hydroxyethyl)-1,4,7,-triazonan-1-yl)acetamide] | soluble in water, methanol, acetonitrile, and dimethyl sulfoxide | stable when stored at 4 °C for several weeks |  |
| CC(=O)CN1CCN(CC(C)=O)CCN(CC(=O)NCc2ccccc2)CC1 [Chelator 4, N-Benzyl-2-(4,7-bis(2-oxopropyl)-1,4,7-triazonan-1-yl)acetamide] | soluble in dimethyl sulfoxide | stable at 4 °C for several weeks |  |
| O=C(O)CN1CCN(CC(=O)O)CCN(CC(=O)NCc2ccccc2)CC1 [Chelator 5, 2,2′-(7-(2-(Benzylamino)-2-oxoethyl)-1,4,7-triazonane-1,4-diyl)diacetic Acid] | soluble in water, methanol, acetonitrile, and dimethyl sulfoxide |  | stable at room temperature for several months |

From PMC11425660, “[^186Re]Re- and [^99mTc]Tc-Tricarbonyl Metal Complexes with 1,4,7-Triazacyclononane-Based Chelators Bearing Amide, Alcohol, or Ketone Pendent Groups” (ACS Omega, 2024)
